Measured values from patent US20260216362A1, “ANTI-BDCA2 ANTIBODY-DRUG CONJUGATE AND USE THEREOF” (DUALITY BIOLOGICS (SHANGHAI) CO., LTD., priority 2022, published 2026).

How the values were obtained:
[1] = test system: human peripheral blood mononuclear cells; assay: Inhibition of CpG-A-induced TNF-α production from human peripheral blood mononuclear cells by BDCA2-ADC; type: cell-based; settings: 0.5 μM CpG-A, 24 h
Description: (§1) The inhibitory effects of the antibody-drug conjugate molecules of the present application on the production from peripheral blood mononuclear cells were detected. Peripheral blood mononuclear cells produce a large number of cytokines after the stimulation of the TLR9 agonist CpG-A. The peripheral blood mononuclear cells were treated in vitro with the BDCA2 antibody-drug conjugate at different concentrations, and IFNα and TNFα produced by the peripheral blood mononuclear cells were quantitatively detected after the stimulation of 0.5 μM CpG-A for a certain period of time. The in vitro activity of the ligand-drug conjugates was evaluated based on the extent of cytokine inhibition.
(§2) The cryopreserved human peripheral blood mononuclear cells were thawed, resuspended in a complete culture medium and counted, and the cell suspension was adjusted to 2.5×10^6 cells/mL with the culture medium and cultured overnight. […] The supernatant was collected, and the TNF-α and IFN-α concentration levels in the supernatant were detected using an ELISA kit. Dose-response data were fitted to an S-shaped curve using non-linear regression, and IC50 values were calculated.
(§3) TNF-α concentration assay was performed using a Dakewe TNF-α ELISA kit (Cat. No. 1117202). […] The reading at wavelength 450 nm was detected using an M2e instrument within 10 min after the termination. […]

[2] = test system: human peripheral blood mononuclear cells; assay: Inhibition of R848-induced TNF-α production from human peripheral blood mononuclear cells by BDCA2-ADC; type: cell-based; settings: 5 μM R848, 24 h
Description: as §1, with “TLR7/8” for “TLR9”, “R848.” for “CpG-A.”, “5” for “0.5”, “R848” for “CpG-A”
as §2, §3

For “BIIB059: reference antibody specifically binding to BDCA2, sequence derived from U.S. Pat. No. 9,902,775B2; SEQ ID NO: 25 and 26 [reference compound]”, the “inhibitory effect on TNF-α secretion” value [1] was “did not have an inhibitory effect” and the “inhibitory effect on TNF-α secretion” value [2] was “did not have an inhibitory effect”.
